The source made the active and inactive calls.
How the values were obtained:
[1] = target: Peroxisome proliferator-activated receptor gamma/Nuclear receptor coactivator 3 (Homo sapiens, UniProt P37231); assay: TR-FRET dose response biochemical High Throughput Screening assay for agonists of the steroid receptor coactivator 3 (SRC-3) recruitment by the peroxisome proliferator-activated receptor gamma (PPAR gamma): non-selective agonists. [Related pubchem assays: 1301 (Confirmation screen.), 1048 (Primary screen.)]; type: functional
[2] = target: Peroxisome proliferator-activated receptor gamma/Nuclear receptor coactivator 2 (Homo sapiens, UniProt P37231); assay: (§1) TR-FRET dose response biochemical High Throughput Screening assay for agonists of the steroid receptor coactivator 2 (SRC-2) recruitment by the peroxisome proliferator-activated receptor gamma (PPAR gamma): non-selective agonists. [Related pubchem assays: 1297, 1032 ]; type: functional
[3] = target: T1, Photoreceptor-specific nuclear receptor (Homo sapiens, UniProt Q9Y5X4); assay: ligands suppressing NR2E3 nuclear receptor activity – biochemical, TR-FRET, dose response (AID 463256); type: functional
T1 sequence (Q9Y5X4 whole entry): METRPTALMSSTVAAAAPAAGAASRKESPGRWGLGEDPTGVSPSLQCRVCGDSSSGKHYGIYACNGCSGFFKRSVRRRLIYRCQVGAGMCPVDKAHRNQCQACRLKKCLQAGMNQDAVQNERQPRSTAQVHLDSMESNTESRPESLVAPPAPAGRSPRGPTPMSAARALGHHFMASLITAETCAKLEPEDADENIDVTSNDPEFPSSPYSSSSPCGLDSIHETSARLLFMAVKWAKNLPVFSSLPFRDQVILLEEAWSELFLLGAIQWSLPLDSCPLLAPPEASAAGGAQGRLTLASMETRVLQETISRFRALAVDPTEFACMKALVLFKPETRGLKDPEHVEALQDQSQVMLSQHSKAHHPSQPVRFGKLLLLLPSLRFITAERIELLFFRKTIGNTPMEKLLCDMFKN

[4] = target: T2, Peroxisome proliferator-activated receptor gamma/Nuclear receptor corepressor 2 (Homo sapiens, UniProt P37231+Q9Y618); assay: Counterscreen for NR2E3 inverse agonists: TR-FRET-based biochemical high throughput dose response assay to identify inverse agonists of the interaction between peroxisome proliferator-activated receptor gamma (PPARg) and nuclear receptor co-repressor 2 (NCOR2).; type: functional
T2 sequence (P37231 whole entry): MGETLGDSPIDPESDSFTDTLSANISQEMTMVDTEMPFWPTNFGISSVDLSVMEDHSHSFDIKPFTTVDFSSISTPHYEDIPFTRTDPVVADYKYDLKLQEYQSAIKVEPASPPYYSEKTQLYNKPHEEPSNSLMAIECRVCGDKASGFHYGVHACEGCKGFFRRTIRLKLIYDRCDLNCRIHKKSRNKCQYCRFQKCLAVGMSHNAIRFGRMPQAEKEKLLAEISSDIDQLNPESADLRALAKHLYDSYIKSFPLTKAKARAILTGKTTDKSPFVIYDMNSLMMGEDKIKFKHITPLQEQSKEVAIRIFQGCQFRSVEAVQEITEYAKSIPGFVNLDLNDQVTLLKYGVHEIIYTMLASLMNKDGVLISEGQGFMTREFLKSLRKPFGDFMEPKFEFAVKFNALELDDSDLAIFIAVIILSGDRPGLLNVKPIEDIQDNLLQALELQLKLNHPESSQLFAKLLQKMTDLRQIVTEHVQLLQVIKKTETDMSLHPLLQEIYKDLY
T2 sequence (Q9Y618 whole entry): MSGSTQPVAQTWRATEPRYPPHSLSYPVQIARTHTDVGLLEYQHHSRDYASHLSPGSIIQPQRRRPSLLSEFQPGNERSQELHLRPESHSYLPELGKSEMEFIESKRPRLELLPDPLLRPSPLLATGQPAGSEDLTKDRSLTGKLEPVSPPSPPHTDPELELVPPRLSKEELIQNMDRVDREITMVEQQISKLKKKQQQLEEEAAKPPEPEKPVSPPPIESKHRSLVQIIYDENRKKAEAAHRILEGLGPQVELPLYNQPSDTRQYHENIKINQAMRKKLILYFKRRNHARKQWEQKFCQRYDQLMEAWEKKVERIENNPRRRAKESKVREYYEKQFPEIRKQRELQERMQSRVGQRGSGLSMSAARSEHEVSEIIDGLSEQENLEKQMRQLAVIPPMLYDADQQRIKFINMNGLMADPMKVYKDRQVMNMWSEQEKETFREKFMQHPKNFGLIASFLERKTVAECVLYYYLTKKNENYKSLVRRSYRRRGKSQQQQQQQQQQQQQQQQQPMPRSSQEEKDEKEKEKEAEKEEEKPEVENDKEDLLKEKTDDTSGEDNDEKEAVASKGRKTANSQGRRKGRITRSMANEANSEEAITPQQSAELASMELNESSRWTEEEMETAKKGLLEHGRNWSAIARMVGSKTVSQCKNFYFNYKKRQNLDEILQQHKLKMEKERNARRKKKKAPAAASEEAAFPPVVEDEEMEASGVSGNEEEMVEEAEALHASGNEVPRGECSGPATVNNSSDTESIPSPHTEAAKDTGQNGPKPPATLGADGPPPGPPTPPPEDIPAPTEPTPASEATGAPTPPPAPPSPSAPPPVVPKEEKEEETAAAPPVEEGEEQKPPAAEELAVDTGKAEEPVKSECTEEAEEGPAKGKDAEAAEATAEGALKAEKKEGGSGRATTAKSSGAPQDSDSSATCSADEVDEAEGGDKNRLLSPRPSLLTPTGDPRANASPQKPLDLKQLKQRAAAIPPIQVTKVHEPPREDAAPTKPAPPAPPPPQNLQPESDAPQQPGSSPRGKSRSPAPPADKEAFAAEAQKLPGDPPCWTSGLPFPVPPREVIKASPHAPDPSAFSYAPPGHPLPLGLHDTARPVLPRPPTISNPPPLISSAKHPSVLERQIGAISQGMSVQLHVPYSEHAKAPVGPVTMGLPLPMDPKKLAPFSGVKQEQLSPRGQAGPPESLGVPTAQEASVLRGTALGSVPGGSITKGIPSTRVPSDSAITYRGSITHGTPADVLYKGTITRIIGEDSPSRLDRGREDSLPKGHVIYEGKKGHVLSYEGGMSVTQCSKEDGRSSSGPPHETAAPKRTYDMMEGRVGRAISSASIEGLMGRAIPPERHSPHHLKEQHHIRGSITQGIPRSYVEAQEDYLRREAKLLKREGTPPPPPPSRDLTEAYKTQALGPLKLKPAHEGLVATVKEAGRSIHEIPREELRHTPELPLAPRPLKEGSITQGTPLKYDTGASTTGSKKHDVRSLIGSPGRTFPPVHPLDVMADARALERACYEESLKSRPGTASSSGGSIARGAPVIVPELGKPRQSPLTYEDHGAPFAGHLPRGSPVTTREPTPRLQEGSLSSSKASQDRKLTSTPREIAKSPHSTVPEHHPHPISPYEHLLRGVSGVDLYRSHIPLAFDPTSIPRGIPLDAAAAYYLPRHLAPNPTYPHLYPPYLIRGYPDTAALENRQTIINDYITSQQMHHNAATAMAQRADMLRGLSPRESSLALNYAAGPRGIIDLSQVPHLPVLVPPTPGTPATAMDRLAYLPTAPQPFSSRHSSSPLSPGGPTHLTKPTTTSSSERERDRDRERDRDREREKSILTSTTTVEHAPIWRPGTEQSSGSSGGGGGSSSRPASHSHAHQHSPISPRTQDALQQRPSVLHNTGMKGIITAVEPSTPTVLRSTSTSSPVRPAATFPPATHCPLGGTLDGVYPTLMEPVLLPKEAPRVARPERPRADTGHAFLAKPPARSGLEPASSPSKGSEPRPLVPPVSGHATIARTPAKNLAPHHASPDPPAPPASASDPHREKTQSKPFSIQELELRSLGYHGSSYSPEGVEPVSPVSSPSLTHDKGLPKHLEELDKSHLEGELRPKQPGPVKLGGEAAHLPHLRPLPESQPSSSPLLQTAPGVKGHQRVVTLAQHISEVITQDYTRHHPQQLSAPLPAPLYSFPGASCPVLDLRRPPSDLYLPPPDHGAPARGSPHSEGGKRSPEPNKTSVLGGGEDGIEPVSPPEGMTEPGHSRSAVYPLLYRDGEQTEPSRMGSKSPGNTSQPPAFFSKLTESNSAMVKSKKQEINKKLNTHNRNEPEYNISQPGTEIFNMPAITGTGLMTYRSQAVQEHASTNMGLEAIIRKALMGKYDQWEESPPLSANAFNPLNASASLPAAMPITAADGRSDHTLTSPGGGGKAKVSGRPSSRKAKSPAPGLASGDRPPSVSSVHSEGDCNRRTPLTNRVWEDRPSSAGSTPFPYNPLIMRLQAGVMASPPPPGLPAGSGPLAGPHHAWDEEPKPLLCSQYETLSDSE

[5] = target: Peroxisome proliferator-activated receptor gamma/Nuclear receptor coactivator 1 (Homo sapiens, UniProt P37231); assay: as §1, with “1 (SRC-1)” for “2 (SRC-2)”, “assays (depositor defined):AID1300, AID1808, AID504735, AID631]” for “assays: 1297, 1032 ]”; type: protein assay
[6] = target: Protein-tyrosine kinase 2-beta (Homo sapiens, UniProt Q14289);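 also: potency of inhibitors of PYK2 kinase phosphorylation of poly-GT substrate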
[7] = target: FAD-linked sulfhydryl oxidase ALR (Homo sapiens, UniProt P55789); assay: ALR-catalysed DTT oxidation blockers – biochemical, H2O2 detection, luminescence, cherry-pick, dose response (AID 493248)
[8] = target: Bifunctional protein GlmU (Mycobacterium tuberculosis, UniProt P9WMN3); assay: Inhibitors of Mycobacterial Glucosamine-1-phosphate acetyl transferase (GlmU). Secondary screen.; parameters: species or system Mycobacterium tuberculosis H37Rv
Cysteine protease ATG4B = target: T3, Cysteine protease ATG4B (Homo sapiens, UniProt Q9Y4P1); type: functional;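 also: Fluorescence-based dose-response confirmation assay measuring inhibition of ATG4B activity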
T3 sequence (Q9Y4P1 whole entry): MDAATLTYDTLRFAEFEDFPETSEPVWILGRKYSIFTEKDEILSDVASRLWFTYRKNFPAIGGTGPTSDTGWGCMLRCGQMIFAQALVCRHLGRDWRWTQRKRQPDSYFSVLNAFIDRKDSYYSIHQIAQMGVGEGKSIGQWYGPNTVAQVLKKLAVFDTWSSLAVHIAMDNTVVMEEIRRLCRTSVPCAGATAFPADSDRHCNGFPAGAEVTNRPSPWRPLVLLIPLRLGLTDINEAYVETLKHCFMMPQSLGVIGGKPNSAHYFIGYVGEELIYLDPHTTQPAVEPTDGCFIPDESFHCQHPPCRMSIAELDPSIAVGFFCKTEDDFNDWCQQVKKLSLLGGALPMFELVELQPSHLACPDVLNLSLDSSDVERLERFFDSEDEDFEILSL

Estrogen receptor beta [9] = target: T4, Estrogen receptor beta (Homo sapiens, UniProt Q92731);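 also: recombinant ER-beta bound to coactivator SRC1 peptide in presence of estradiol agonist; inhibitors block coactivator peptide binding and lower the FRET signal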
T4 sequence (Q92731 whole entry): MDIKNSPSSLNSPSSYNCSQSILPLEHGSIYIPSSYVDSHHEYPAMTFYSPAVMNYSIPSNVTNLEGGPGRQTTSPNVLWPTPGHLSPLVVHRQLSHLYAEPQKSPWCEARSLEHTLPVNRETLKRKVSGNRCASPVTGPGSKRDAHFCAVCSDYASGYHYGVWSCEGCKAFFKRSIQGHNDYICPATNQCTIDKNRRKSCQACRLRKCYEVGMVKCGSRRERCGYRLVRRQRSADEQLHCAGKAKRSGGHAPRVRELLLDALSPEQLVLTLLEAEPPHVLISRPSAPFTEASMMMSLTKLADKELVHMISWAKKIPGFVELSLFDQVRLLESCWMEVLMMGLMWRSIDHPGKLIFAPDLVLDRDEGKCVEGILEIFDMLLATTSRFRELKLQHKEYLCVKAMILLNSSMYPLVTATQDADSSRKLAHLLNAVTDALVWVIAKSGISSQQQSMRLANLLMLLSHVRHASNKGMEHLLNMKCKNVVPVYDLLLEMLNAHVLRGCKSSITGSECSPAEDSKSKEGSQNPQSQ

Large T antigen = Large T antigen (Simian virus 40, UniProt P03070); type: functional, Betapolyomavirus macacae;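 also: Confirmatory-stage PubChem screen for compounds that inhibit SV40 T antigen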
[10] = target: T2, Peroxisome proliferator-activated receptor gamma/Nuclear receptor corepressor 2; type: functional
Estrogen receptor beta [11] = target: T4, Estrogen receptor beta; assay: blockers of SRC-3 recruitment to ERβ – biochemical, ELISA, streptavidin-HRP readout, orthogonal assay, confirmation (AID 1060)
[12] = IC50 of Artemis nuclease activity blockers – biochemical, fluorescence intensity, dose response (AID 720701); type: functional;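 also: Artemis endonuclease enzyme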
[13] = target: T1, Photoreceptor-specific nuclear receptor; type: functional
Estrogen receptor = target: T5, Estrogen receptor (Homo sapiens, UniProt P03372);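 also: potency for inhibiting coactivator peptide recruitment to the receptor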
T5 sequence (P03372 whole entry): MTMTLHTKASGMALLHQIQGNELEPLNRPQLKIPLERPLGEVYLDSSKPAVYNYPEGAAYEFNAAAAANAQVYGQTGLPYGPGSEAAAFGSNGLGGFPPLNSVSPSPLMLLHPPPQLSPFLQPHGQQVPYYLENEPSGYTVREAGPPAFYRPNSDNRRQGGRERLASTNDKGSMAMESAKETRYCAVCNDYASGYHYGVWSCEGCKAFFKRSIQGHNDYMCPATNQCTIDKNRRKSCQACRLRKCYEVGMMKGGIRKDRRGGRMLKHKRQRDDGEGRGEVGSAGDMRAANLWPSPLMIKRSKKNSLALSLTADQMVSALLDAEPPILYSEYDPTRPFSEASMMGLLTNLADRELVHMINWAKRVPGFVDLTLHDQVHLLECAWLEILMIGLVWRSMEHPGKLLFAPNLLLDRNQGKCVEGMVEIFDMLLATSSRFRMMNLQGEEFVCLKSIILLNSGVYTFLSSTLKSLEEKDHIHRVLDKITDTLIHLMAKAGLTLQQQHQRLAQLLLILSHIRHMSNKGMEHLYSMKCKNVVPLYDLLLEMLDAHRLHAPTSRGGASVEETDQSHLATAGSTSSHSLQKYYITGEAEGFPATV

Phospholipase A2 = Phospholipase A2 (Homo sapiens, UniProt P04054); type: functional;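 also: confirmatory dose-response counterscreen on phospholipase A2, testing hits that came from an ultra-high-throughput screen for ATG4B inhibitors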
Phospholipase A2, sequence (P04054 whole entry): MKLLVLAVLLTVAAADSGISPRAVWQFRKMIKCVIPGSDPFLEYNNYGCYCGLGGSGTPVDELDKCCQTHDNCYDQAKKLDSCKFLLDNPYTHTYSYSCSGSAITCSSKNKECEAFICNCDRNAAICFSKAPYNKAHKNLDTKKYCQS

[14] = target: E3 ubiquitin-protein ligase Mdm2 (Homo sapiens, UniProt Q00987); assay: MDM2-luc reporter signal enhancers, multi-concentration potency testing, MDM2 ubiquitin-protein ligase inhibitor program, whole-cell format, luminescence detection, 384-well microplate (AID 1394); type: functional;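 also: MDM2 E3 inhibitors raise luminescence so EC50 is for signal enhancement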
Ephrin type-A receptor 4 = Ephrin type-A receptor 4 (Mus musculus, UniProt Q03137); assay: EphA4 ligand-binding antagonists – biochemical, colorimetric, mouse EphA4, primary screen (AID 689); type: functional
[15] = Luminescence Cell-Based Dose Response HTS to Identify Activators of Luciferase Translation or Activity in H4 […] Cells. [Related pubchem assays: 1829 (Project Summary), 1814 (Primary HTS)]; type: functional
[16] = target: Heat shock protein HSP 90-alpha (Homo sapiens, UniProt P07900); assay: Luminescence-based dose response biochemical high throughput screening assay for inhibitors of the Heat Shock Protein 90 (HSP90). [Related pubchem assays: 1831 (Summary AID.), 1846 (Confirmation screen.), 1789 (Primary screen.)]
[17] = Luminescence Cell-Based Dose Confirmation to Identify Activators of 5'UTR Stem-Loop Driven Alpha-Synuclein mRNA Translation in H4 Neuroglioblastoma Cells. [Related pubchem assays: 1829 (Project Summary), 1814 (Primary HTS)]; type: functional
H4 = assay: Luminescence Cell-Based Dose Response HTS to Identify Activators of 5'UTR Stem-Loop Driven Prion Protein mRNA Translation in H4 Neuroglioblastoma Cells. [Related pubchem assays: 1829 (Project Summary), 1814 (Primary HTS)]; type: functional; conditions: Homo sapiens
[18] = Luminescence Cell-Based Dose Confirmation HTS to Identify Activators of 5'UTR Stem-Loop Driven Alpha-Synuclein mRNA Translation in H4 Neuroglioblastoma Cells. [Related pubchem assays: 1829 (Project Summary), 1814 (Primary HTS)]; type: functional
[19] = Luminescence Cell-Based Dose Response to Identify Activators of 5'UTR Stem-Loop Driven Prion Protein mRNA Translation in H4-C Neuroglioblastoma Cells. [Related pubchem assays: 1829 (Project Summary), 1814 (Primary HTS)]; type: functional
[20] = Luminescence Cell-Based Dose Response to Identify Activators of Luciferase Translation or Activity in H4-C Neuroglioblastoma Cells. [Related pubchem assays: 1829 (Project Summary), 1814 (Primary HTS)]; type: functional
Cytochrome P450 3A4 = Cytochrome P450 3A4 (Homo sapiens, UniProt P08684);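 also: CYP3A4 tested as one member of a cytochrome P450 panel screen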
Cytochrome P450 3A4, sequence (P08684 whole entry): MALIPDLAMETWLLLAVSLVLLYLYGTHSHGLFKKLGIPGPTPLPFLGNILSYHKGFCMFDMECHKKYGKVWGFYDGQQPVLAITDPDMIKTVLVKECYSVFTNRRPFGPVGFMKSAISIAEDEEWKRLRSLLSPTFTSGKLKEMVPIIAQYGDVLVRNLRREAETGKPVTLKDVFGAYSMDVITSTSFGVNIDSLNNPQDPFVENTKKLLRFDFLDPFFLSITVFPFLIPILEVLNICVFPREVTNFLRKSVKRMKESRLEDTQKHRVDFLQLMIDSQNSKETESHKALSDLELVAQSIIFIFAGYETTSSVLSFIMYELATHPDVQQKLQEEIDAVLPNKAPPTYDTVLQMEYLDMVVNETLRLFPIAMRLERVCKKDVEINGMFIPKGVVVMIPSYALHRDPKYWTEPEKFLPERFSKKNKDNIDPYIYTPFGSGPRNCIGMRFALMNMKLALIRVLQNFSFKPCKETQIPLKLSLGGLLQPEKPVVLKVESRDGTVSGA

Streptococcus = assay: GAS UMAA2166 growth inhibition – luminescence, BacTiterGlo, counter-screen for streptokinase expression inhibitor project, dose response (AID 1915); type: functional, organism-based;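 also: potency for reduction of bacterial viability or growth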
[21] = target: Sphingosine 1-phosphate receptor 2 (Homo sapiens, UniProt O95136); assay: Dose Response Cell Based Assay for Antagonists of the S1P2 Receptor. [Related pubchem assays: 856, 736 ]; type: functional
[22] = system: Streptococcus sp. 'group A'; assay: Streptococcus pyogenes SK(-)GAS viability under kanamycin – luminescence, BacTiterGlo, confirmation, counter-screen for streptokinase expression inhibitor project, dose response (AID 1900); type: functional, organism-based
Streptokinase A = target: T6, Streptokinase A (Streptococcus pyogenes serotype M1, UniProt P10520); assay: viability-normalized secreted streptokinase activity reduction – plasminogen activation absorbance, OD405, dose response (AID 1914); type: functional, Streptococcus pyogenes M1 GAS;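 also: secreted streptokinase activity via plasminogen activation per viability signal from cell pellet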
T6 sequence (P10520 whole entry): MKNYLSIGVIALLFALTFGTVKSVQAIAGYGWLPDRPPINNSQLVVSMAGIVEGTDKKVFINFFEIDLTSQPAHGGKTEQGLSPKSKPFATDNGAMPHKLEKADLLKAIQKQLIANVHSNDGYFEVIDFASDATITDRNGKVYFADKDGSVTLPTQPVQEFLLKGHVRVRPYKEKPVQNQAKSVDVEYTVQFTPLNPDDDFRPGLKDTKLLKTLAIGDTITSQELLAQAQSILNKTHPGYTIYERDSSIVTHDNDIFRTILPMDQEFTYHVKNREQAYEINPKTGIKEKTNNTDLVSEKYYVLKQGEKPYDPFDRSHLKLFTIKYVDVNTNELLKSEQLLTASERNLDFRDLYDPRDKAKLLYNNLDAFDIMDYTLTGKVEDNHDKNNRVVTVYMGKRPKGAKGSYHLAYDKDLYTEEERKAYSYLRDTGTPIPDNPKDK

[23] = target: Mitogen-activated protein kinase 10 (Homo sapiens, UniProt P53779); assay: Dose response biochemical screening assay for inhibitors of c-Jun N-Terminal Kinase 3 (JNK3). [Related pubchem assays: 746 ]
Mitogen-activated protein kinase 10, sequence (P53779 whole entry): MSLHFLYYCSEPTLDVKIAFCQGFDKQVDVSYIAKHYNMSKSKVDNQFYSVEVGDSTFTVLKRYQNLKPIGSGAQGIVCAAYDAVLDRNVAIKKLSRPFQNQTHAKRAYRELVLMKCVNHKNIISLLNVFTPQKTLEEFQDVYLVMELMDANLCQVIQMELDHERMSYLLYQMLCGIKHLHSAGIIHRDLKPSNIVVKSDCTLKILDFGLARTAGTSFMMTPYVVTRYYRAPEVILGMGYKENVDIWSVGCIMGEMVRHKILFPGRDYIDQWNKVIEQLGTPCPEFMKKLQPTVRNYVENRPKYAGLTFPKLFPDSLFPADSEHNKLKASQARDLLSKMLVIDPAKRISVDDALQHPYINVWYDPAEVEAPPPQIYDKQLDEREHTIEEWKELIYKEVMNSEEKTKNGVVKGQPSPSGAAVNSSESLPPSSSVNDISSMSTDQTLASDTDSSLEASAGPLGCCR

Cytochrome P450 2D6 = Cytochrome P450 2D6 (Homo sapiens, UniProt P10635);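 also: CYP2D6 member of a cytochrome P450 panel assay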
[24] = M. tuberculosis growth inhibition, HTS (AID 449762); type: functional

COc1ccc(C(=O)Nc2nc3ccc4nc(C)sc4c3s2)cc1
EC50 [1]: 58.7 µM (not active)
EC50 [2]: 37.9 µM (not active)
IC50 [3]: 862 nM (active)
IC50 [4]: 2.19 µM (active)
EC50 [5]: 45.2 µM (inactive)
IC50 [6]: 1.45 µM (active)

O=C(O)c1cc(-c2ccco2)nc2ccc(Br)cc12
AC50 [7]: 785 nM (active)
IC50 [8]: 81.9 µM (active)
IC50 (Cysteine protease ATG4B): 9.96 µM (active)
IC50 (Estrogen receptor beta [9]): 9.82 µM (active)
IC50 (Large T antigen): 78.6 µM (active)
IC50 [10]: 1.38 µM (active)
IC50 (Estrogen receptor beta [11]): < 23 nM (not active)
IC50 [12]: > 20 µM (inactive)
IC50 [13]: > 39.8 µM (not active)
IC50 (Estrogen receptor): 47.6 µM (not active)
IC50 (Phospholipase A2): 12.2 µM (active)

COc1ccc(OC)c(CNn2c(-c3ccccc3F)nc3ccccc3c2=O)c1
EC50 [14]: 85 µM (not active)

Cc1occc1-c1nnc(SCC(=O)Nc2ccccc2-c2ccccc2)n1C
IC50 (Ephrin type-A receptor 4): > 100 µM (not active)

CCOC(=O)c1sc(NC(=O)c2ccc(C)o2)nc1C
EC50 [15]: < 100 nM (inconclusive)
IC50 [16]: 6.55 µM (active)
EC50 [17]: 793 nM (active)
EC50 (H4): 3.76 µM (active)
EC50 [18]: 306 nM (active)
EC50 [19]: 541 nM (active)
EC50 [20]: 421 nM (active)

Cc1nn(-c2ccccc2)c2c1C(c1ccc(O)c(O)c1)N1C(=N2)C(Nc2ccccc2)=Nc2ccccc21 (stereo unspecified)
AC50 (Cytochrome P450 3A4): 14.1 µM (inconclusive)
EC50 (Streptococcus): 5.88 µM (active)
IC50 [21]: 4.68 µM (active)
EC50 [22]: 772 nM (active)
EC50 (Streptokinase A): 1.53 µM (active)

CCOC(=O)c1cccc2c1-c1ccccc1/C2=N/O
AC50 (Cytochrome P450 3A4): 28.2 µM (inconclusive)
IC50 [23]: 11.5 µM (not active)
AC50 (Cytochrome P450 2D6): inconclusive
IC50 [6]: 7.48 µM (active)

O=C(N/N=C/c1c(F)c(F)c(F)c(F)c1F)c1cccc(S(=O)(=O)N2CCOCC2)c1
IC50 [24]: > 100 µM (active)

— ChEMBL document CHEMBL1201862, “PubChem BioAssay data set” (2004)
